The source made the active and inactive calls.
How the values were obtained:
[1] = ADAM10 inhibitors, peptide cleavage, dose response, biochemical, QFRET (AID 743254);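 note: ADAM10 enzyme with the DM2 quenched FRET peptide as substrate; EDANS fluorescence gain as the protease cuts the substrate; inhibitor potency against ADAM10 proteolytic activity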
[2] = inhibitors of HIV Env-driven cell fusion, dose response, cherry-pick (AID 652057); format: functional, cell-based
[3] = T. cruzi intracellular amastigote growth inhibition, dose response, imaging, CA-I/72 strain, bovine embryo skeletal muscle, dry powder (AID 651885); format: functional, cell-based
[4] = ZM109 Env clade C HIV-1 fusion inhibitors, dose response, HeLa effector, CEM target cells, luciferase, cherry-pick (AID 652058); format: functional, cell-based
[5] = intracellular Trypanosoma cruzi inhibitors in host cells – cell-based, plate reader, cherry-pick samples, set 3, dose response (AID 651818); format: functional;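 note: compounds incubated with infected cells for about four days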
[6] = inhibitors of clade B AD8 Env fusion, dose response, cell-based, cherry-pick (AID 652062); format: functional;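 note: luciferase signal from cell-cell fusion driven by HIV-1 clade B AD8 Env; potency is for inhibitors of fusion seen as a drop in luminescence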
[7] = T. cruzi growth inhibition in host cells, dose response, cell-based, plate reader, dry powder, set 2 (AID 652275); format: functional
[8] = target: Melanocortin receptor 4 (Homo sapiens, UniProt P32245); assay: MC4R antagonist potency on cAMP, dose response, cell-based, TR-FRET, biased antagonists (AID 602298); format: functional;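 note: antagonist potency against agonist-stimulated cAMP production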
[9] = target: T1, Polyadenylate-binding protein 1 (Homo sapiens, UniProt P11940); assay: PABP1 MLLE–PAM2 binding inhibitor potency, dose response, biochemical, fluorescence polarization, FITC-PAM2 peptide (AID 602259); format: functional; conditions: read-out: IC50_Mean
[10] = target: T2, Sphingosine 1-phosphate receptor 4 (Homo sapiens, UniProt O95977); assay: Fluorescence dose response cell-based high throughput screening assay for antagonists of the Sphingosine 1-Phosphate Receptor 4 (S1P4). [Related pubchem assays: 1524 (Confirmation in triplicates.), 1510 (Primary screen.)]; format: functional
T2 sequence (O95977 whole entry): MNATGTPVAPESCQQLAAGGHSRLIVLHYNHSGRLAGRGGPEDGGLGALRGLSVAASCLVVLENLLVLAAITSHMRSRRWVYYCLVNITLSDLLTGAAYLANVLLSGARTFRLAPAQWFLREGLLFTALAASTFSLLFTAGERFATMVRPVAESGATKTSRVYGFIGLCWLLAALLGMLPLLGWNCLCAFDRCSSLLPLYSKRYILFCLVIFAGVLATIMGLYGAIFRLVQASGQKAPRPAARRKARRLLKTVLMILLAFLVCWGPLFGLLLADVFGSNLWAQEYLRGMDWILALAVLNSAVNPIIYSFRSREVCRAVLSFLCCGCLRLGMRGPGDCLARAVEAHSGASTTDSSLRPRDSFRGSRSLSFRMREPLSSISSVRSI

[11] = off-target signal loss in HeLa-CEM21 co-culture – HeLa F-luc CTL cells, cherry-picked, counter-screen for HIV-1 Env fusion inhibitor project, dose response (AID 652040); format: functional, cell-based;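 note: potency for signal decrease marking cytotoxic or nonspecific inhibition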
[12] = target: Dual specificity tyrosine-phosphorylation-regulated kinase 1A (Rattus norvegicus, UniProt Q63470); format: biochemical, Homo sapiens
[13] = target: Galanin receptor type 3 (Homo sapiens, UniProt O60755); assay: Fluorescence-based cell-based primary high throughput dose response assay to identify antagonists of the Galanin Receptor 3 (GalR3).; format: functional
[14] = CEM21 lymphoblast cell cytotoxicity, dose response, cytotoxicity control for viral fusion inhibitor project, CellTiter-Glo luminescence, cherry-picked (AID 652042); format: functional, cell-based;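 note: potency for signal decrease meaning cytotoxicity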
[15] = cells; format: functional, cell-based; conditions: HEK-CNG
[16] = nonselective inhibitors of cellular cAMP signaling, dose response, counter-screen for MC4R biased antagonist project, cell-based, TR-FRET cAMP detection (AID 602305); format: functional;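 note: U2OS cells stimulated with forskolin near its EC80 as the cAMP inducer; potency is for inhibition of forskolin-stimulated cAMP signaling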
[17] = target: Sphingosine 1-phosphate receptor 1 (Homo sapiens, UniProt P21453); format: functional;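 note: Tango beta-arrestin reporter U2OS cells stimulated with S1P near its EC80; inhibitor potency meaning antagonism of receptor activation by the natural agonist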
[18] = target: T1, Polyadenylate-binding protein 1; assay: PABP1 MLLE–PAM2 interaction inhibitors, dose response, miRNA deadenylation inhibitor project, biochemical, fluorescence polarization, Cy5-PAM2 peptide, secondary (AID 602260); format: functional; conditions: read-out: IC50_Mean
[19] = target: Paired box protein Pax-8 (Homo sapiens, UniProt Q06710); assay: inhibitors of PAX8-driven TPO luciferase reporter, dose response, RMG-I cells, cherry-pick (AID 687027); format: functional, cell-based;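 note: luciferase reporter driven by Pax8 target thyroperoxidase promoter measured by SteadyGlo luminescence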
[20] = target: Neurotensin receptor type 1 (Homo sapiens, UniProt P30989); format: functional;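 note: Image-based confirmatory dose-response assay measuring agonist activity at NTR1; NTR1-expressing U2OS osteosarcoma cells imaged for beta-arrestin GFP spot formation; agonist potency where compounds increase beta-arrestin recruitment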
[21] = target: Disintegrin and metalloproteinase domain-containing protein 17 (Homo sapiens, UniProt P78536); assay: ADAM17 protease inhibitors, dose response, counter-screen for ADAM10 exosite inhibitor project, biochemical, quenched FRET substrate (AID 743253)
[22] = target: Fructose-bisphosphate aldolase (Mycobacterium tuberculosis, UniProt P9WQA3); assay: Fluorescence-based biochemical high throughput dose response assay for inhibitors of the fructose-bisphosphate aldolase (FBA) of M. tuberculosis.; format: functional
[23] = target: Long-chain-fatty-acid--AMP ligase FadD28 (Mycobacterium tuberculosis, UniProt P9WQ59); assay: Fluorescence polarization aasay to screen for inhibitors that compete for the binding of FadD28 to a bisubstrate Measured in Biochemical System Using Plate Reader - 2147-01_Inhibitor_Dose_CherryPick_Activity.; format: functional, Mycobacterium tuberculosis H37Rv
[24] = target: Major prion protein (Homo sapiens, UniProt P04156); format: functional, cell-based
[25] = target: Photoreceptor-specific nuclear receptor (Homo sapiens, UniProt Q9Y5X4); format: functional;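 note: potency for compounds that break the NR2E3 corepressor complex and count as activators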
[26] = target: Peroxisome proliferator-activated receptor gamma/Nuclear receptor corepressor 2 (Homo sapiens, UniProt P37231+Q9Y618); format: functional
[27] = cells
[28] = target: 1-phosphatidylinositol 4,5-bisphosphate phosphodiesterase beta-3 (Homo sapiens, UniProt Q01970); assay: Fluorescence-based biochemical high throughput dose response assay to identify inhibitors of phospholipase C isozymes (PLC-B3).
[29] = target: 1-phosphatidylinositol 4,5-bisphosphate phosphodiesterase gamma-1 (Homo sapiens, UniProt P19174); assay: Counterscreen for inhibitors of phospholipase C isozymes (PLC-B3): Fluorescence-based biochemical high throughput dose response assay to identify inhibitors of phospholipase C isozymes (PLC-gamma1).
[30] = target: T3, Oxysterols receptor LXR-beta (Homo sapiens, UniProt P55055); format: functional, cell-based;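 note: agonist activity at LXR measured by a cell-based luminescence readout across a dose range, run as a counterscreen for daf-12 agonists; HEK293 cells with Gal4-LXR fusion and GAL4-driven luciferase reporter; potency for activation of Gal4-LXR reporter so compounds are agonists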
T3 sequence (P55055 whole entry): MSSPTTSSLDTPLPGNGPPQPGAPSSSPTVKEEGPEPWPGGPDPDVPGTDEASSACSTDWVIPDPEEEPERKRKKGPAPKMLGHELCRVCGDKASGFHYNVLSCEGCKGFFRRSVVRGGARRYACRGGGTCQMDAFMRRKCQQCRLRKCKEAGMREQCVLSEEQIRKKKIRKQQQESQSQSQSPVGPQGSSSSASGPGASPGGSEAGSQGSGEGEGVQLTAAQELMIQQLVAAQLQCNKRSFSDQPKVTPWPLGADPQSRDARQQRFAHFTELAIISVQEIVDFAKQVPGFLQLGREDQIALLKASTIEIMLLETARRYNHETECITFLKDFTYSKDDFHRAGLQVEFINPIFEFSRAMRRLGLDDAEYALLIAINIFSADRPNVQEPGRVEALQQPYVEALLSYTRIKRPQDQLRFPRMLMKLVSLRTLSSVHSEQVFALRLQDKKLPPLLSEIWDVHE

[31] = HepG2 cell cytotoxicity, dose response, cytotoxicity control, ATP luminescence, cherry-pick, activator set 2 (AID 1053143); format: functional, cell-based
[32] = target: Beta-galactosidase (Escherichia coli, UniProt Q8VNN2); assay: Dose response counterscreen for EBI2 assay utilizing the enzyme, b-galactosidase.; format: functional

With `Cc1ccc(C(=O)Nc2nnc(N=C(S)Nc3ccccc3)s2)cc1` the IC50 [1] was > 69.5 µM (inactive).

With `C[C@@H]1CN([C@@H](C)CO)C(=O)c2cccc(NC(=O)c3ccncc3)c2O[C@H]1CN(C)CC1CCCCC1` the AC50 [2] was 0.4 µM (active), the IC50 [3] was 0.74 µM (active) and the AC50 [4] was 0.953 µM (active). For the same compound, the AC50 [5] was 0.636 µM (active), the AC50 [6] was 1.96 µM (active) and the AC50 [7] was 0.182 µM (active).

For `NC(=S)c1cn([C@@H]2O[C@H](CO)[C@@H](O)[C@H]2O)c2ncnc(N)c12`, the AC50 [2] was < 0.26 µM (active), the IC50 [8] was > 64.6 µM (inactive) and the IC50 [9] was > 66 µM (inactive). For the same compound, the IC50 [10] was 0.42 µM (active), the AC50 [11] was < 0.26 µM (active) and the AC50 [12] was 0.158 µM (active). For the same compound, the IC50 [13] was 1.01 µM (active), the AC50 [4] was < 0.26 µM (active) and the AC50 [14] was 0.344 µM (active). For the same compound, the EC50 [15] was > 29.9 µM (inactive), the IC50 [16] was > 64.6 µM (inactive) and the IC50 [17] was 1.96 µM (active). The AC50 [6] was < 0.26 µM (active), the IC50 [18] was > 66 µM (inactive) and the AC50 [19] was 0.294 µM (active).

For `Cc1ccc(C(=O)Nc2nnc(NC(=S)Nc3ccccc3)s2)cc1`, the EC50 [20] was 7.59 µM (active) and the IC50 [21] was > 69.5 µM (inactive).

With `COc1ccc(CNCc2ccc(OC)c3ccccc23)cc1` the IC50 [22] was > 10 µM (inactive).

In the case of `COc1ccc(/C=C2\SC(=O)N(CC(=O)Nc3cccc(C)c3)C2=O)cc1O`, the AC50 [23] is reported as 1.47 µM (active).

With `CC(C)C1Cc2ccccc2-c2[nH]c(=S)[nH]c(=O)c21` (stereo not given) the IC50 [24] was 4.87 µM (active), the IC50 [25] was > 39.8 µM (not active) and the IC50 [26] was 4.66 µM (active).

In the case of `CC(C)C1Cc2ccccc2-c2nc(S)nc(O)c21` (stereo not given), the IC50 [27] is reported as > 138 µM (inactive).

For `CC[C@H]1C=C[C@@H](C(=O)NS(=O)(=O)c2ccc(C)cc2)N(C(C)=O)C1`, the IC50 [28] was > 122 µM (inactive) and the IC50 [29] was > 122 µM (inactive).

For `Cc1cccc(C)c1NC(=S)Nc1ccccc1C(=O)NCc1ccco1`, the IC50 [22] was 6.61 µM (active).

With `Cn1c(=O)c2cc(NC(=S)NC3CCCCC3)ccc2n1C/C=C/c1ccccc1` the AC50 [23] was > 100 µM (inactive).

In the case of `Cc1ccc(-n2nc3c(SCCN4CCOCC4)nnc(C)c3c2C)cc1`, the IC50 [27] is reported as > 138 µM (inactive) and the IC50 [24] is reported as 12.8 µM (inactive).

In the case of `CCOC(=O)c1cnc(SCCc2ccccc2)nc1N`, the EC50 [30] is reported as > 67.5 µM (inactive).

For `CSc1cccc(NC(=O)CCCOc2ccc(Cl)cc2C)c1`, the IC50 [1] was 65.6 µM (inactive) and the IC50 [21] was > 69.5 µM (inactive).

In the case of `COc1cccc(-c2nc(-c3ccc(Br)o3)no2)c1`, the AC50 [31] is reported as > 52 µM (inactive) and the EC50 [30] is reported as > 67.5 µM (inactive).

In the case of `COc1ccc(-c2ccc(-c3nc4ccc(C)cn4c3NC3CCCCC3)cc2OC)cc1`, the IC50 [32] is reported as 77.5 µM (inactive).

For `Cc1cc(C(=O)NNC(=S)NCC(C)C)cs1`, the IC50 [28] was > 122 µM (inactive) and the IC50 [29] was > 122 µM (inactive).

In the case of `COc1ccc(OCC(=O)Nc2ccc(N3CCOCC3)cc2)cc1`, the IC50 [32] is reported as > 80 µM (inactive).
